What follows are molecules tested against T1, USP28 (His-tagged USP28-FL-mammalian) (Homo sapiens, UniProt Q96RU2) (assay: Ubiquitin-Rhodamine 110 Assay for USP28 Activity, Example A-1(a)). Details: Ubiquitin-Rhodamine 110 assay, Example A-1(a); read-out: USP28 A-1(a) IC50 range.
T1 construct: Expression of USP28 (1-1077)-TEV-6*His (pTT5 vector); made in house; host or cells: Expi293f cells (pTT5 vector)
T1 sequence (Q96RU2 1-1077): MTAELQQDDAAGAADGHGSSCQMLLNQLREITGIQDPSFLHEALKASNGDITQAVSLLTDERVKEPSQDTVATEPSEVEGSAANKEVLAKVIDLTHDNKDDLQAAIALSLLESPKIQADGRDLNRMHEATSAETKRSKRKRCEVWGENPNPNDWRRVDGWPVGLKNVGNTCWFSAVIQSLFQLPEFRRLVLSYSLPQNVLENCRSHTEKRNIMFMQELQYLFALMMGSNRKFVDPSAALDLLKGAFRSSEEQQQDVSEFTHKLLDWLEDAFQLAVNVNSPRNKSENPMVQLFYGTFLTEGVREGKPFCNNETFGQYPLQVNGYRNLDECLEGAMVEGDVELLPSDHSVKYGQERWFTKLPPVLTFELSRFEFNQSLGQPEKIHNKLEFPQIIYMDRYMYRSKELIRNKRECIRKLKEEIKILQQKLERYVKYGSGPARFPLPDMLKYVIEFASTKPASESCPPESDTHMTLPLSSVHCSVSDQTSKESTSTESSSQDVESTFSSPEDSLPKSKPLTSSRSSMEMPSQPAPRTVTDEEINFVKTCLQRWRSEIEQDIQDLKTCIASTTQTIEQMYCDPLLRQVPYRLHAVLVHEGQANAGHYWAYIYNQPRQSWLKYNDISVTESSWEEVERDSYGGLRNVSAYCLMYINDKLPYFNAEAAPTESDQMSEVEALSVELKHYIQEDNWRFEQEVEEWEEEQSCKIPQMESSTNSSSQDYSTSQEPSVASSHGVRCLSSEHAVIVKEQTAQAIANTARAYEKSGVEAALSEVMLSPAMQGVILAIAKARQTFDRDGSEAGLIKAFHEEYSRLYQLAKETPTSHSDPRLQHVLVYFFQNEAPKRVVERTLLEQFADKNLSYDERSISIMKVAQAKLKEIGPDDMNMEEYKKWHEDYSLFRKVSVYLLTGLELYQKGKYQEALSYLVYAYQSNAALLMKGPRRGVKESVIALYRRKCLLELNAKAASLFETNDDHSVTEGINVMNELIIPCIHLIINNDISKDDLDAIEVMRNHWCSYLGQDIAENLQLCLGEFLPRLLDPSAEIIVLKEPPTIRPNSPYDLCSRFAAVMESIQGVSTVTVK
Assay type: biochemical
Procedure, shortened: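 Full-length His-tagged human USP28 (1-1077, Expi293f-expressed), […], with 25 nM Ub-Rh110 (<<Km) in pH 8.0 Tris buffer with BME, BGG, Triton X-100. 10-point dilutions (25 μM-1.3 nM), 45 min at room temperature, citric acid stop, fluorescence 485/535 nm; IC50 by 4-parameter fit.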

Row | SMILES | IC50 [nM]
1 | Cc1ccc2c(N)c(C(=O)N[C@H]3CCc4nc(N5C[C@H](C(F)F)[C@@H](N)C5)ccc4C3)sc2n1 [Example 347, 3-amino-N-[(6S)-2-[(3R,4S)-3-amino-4-(difluoromethyl)pyrrolidin-1-yl]-5,6,7,8-tetrahydroquinolin-6-yl]-6-methylthieno[2,3-b]pyridine-2-carboxamide] | 50 to 200
2 | O=C(N[C@H]1COc2cc(N3CCNCC3)ccc2C1)c1cn2nc(Cl)ccc2n1 [Example 464, (R)-6-chloro-N-(7-(piperazin-1-yl)chroman-3-yl)imidazo[1,2-b]pyridazine-2-carboxamide] | > 2000
3 | Cc1ccc2c(N)c(C(=O)N[C@H]3COc4cc(N5CCC[C@](C)(O)C5)ccc4C3)sc2n1 [Example 7-2] | 1 to 50
4 | O=C(N[C@H]1COc2cc(N3CCNCC3)ccc2C1)c1cnn2cccnc12 [Example 466, (R)-N-(7-(piperazin-1-yl)chroman-3-yl)pyrazolo[1,5-a]pyrimidine-3-carboxamide] | > 2000
5 | Cc1cc(C)c2c(N)c(C(=O)N[C@H]3CCc4nc(N5CC6CCC(C5)N6)ccc4C3)sc2n1 [Example 354, 3-amino-N-[(6S)-2-{3,8-diazabicyclo[3.2.1]octan-3-yl}-5,6,7,8-tetrahydroquinolin-6-yl]-4,6-dimethylthieno[2,3-b]pyridine-2-carboxamide] | 1 to 50
6 | Cc1cnc2c(N)c(C(=O)N[C@H]3CCc4nc(N5C[C@H](N)C6(COC6)C5)ccc4C3)sc2n1 [Example 365, 7-amino-N-[(6S)-2-[(8R)-8-amino-2-oxa-6-azaspiro[3.4]octan-6-yl]-5,6,7,8-tetrahydroquinolin-6-yl]-3-methylthieno[2,3-b]pyrazine-6-carboxamide] | 1 to 50
7 | Cc1ccc2c(N)c(C(=O)N[C@@H]3CCc4cc(N5CCNCC5)c(F)c(F)c4C3)sc2n1 [Example 418, 3-amino-N-[(2R)-7,8-difluoro-6-(piperazin-1-yl)-1,2,3,4-tetrahydronaphthalen-2-yl]-6-methylthieno[2,3-b]pyridine-2-carboxamide] | 50 to 200
8 | Cc1ccc2c(N)c(C(=O)N[C@H]3COc4cc(N5C[C@H](OC(F)(F)F)[C@@H](N)C5)ccc4C3)sc2n1 (single isomer, unassigned) [Example 3-10] | 50 to 200
9 | Cc1cnc2c(N)c(C(=O)N[C@H]3CCc4cc(N5CCCNCC5)ccc4C3)sc2n1 [Example 455, (S)-N-(6-(1,4-diazepan-1-yl)-1,2,3,4-tetrahydronaphthalen-2-yl)-7-amino-3-methylthieno[2,3-b]pyrazine-6-carboxamide] | 50 to 200
10 | CCn1cc(Cl)c2cc(C(=O)N[C@H]3COc4c(F)c(N5CC6CCC(C5)N6)cc(F)c4C3)nnc21 [Example 355, 5-chloro-N-[(3R)-7-{3,8-diazabicyclo[3.2.1]octan-3-yl}-5,8-difluoro-3,4-dihydro-2H-1-benzopyran-3-yl]-7-ethyl-7H-pyrrolo[2,3-c]pyridazine-3-carboxamide] | 50 to 200
11 | Cc1cccc2c(C(=O)N[C@H]3COc4cc(N5CCNCC5)ccc4C3)cnn12 [Example 458, (R)-7-methyl-N-(7-(piperazin-1-yl)chroman-3-yl)pyrazolo[1,5-a]pyridine-3-carboxamide] | 1 to 50
12 | O=C(N[C@H]1COc2cc(N3CCNCC3)ccc2C1)c1cnn2cc(Cl)ccc12 [Example 462, (R)-6-chloro-N-(7-(piperazin-1-yl)chroman-3-yl)pyrazolo[1,5-a]pyridine-3-carboxamide] | > 2000
13 | Cc1ccc2c(N)c(C(=O)N[C@H]3COc4cc(N5C[C@@H](N)CC56COC6)ccc4C3)sc2n1 (single isomer, unassigned) [Example 352] | 1 to 50
14 | Cc1ccc2c(N)c(C(=O)N[C@H]3COc4cc(N5CC6CNC[C@](C)(C5)O6)cc(F)c4C3)sc2n1 [Example 413, 3-amino-N-[(3R)-5-fluoro-7-[(1R)-1-methyl-9-oxa-3,7-diazabicyclo[3.3.1]nonan-3-yl]-3,4-dihydro-2H-1-benzopyran-3-yl]-6-methylthieno[2,3-b]pyridine-2-carboxamide] | 1 to 50
15 | Cc1ccc2c(N)c(C(=O)N[C@H]3COc4cc(N5C[C@@H](N)[C@H](F)C5)ccc4C3)sc2n1 [Example 3-8, 3-amino-N-((R)-7-((3R,4R)-3-amino-4-fluoropyrrolidin-1-yl)chroman-3-yl)-6-methylthieno[2,3-b]pyridine-2-carboxamide] | 1 to 50
16 | Cc1ccc2c(N)c(C(=O)N[C@H]3COc4cc(N5CCN[C@@H](C(F)(F)F)C5)ccc4C3)sc2n1 [Example 3-11, 3-amino-6-methyl-N-((R)-7-((R)-3-(trifluoromethyl)piperazin-1-yl)chroman-3-yl)thieno[2,3-b]pyridine-2-carboxamide] | 50 to 200
17 | Cc1cnc2c(N)c(C(=O)N[C@H]3CCc4nc(N5C[C@@H](N)C6(COC6)C5)ccc4C3)sc2n1 [Example 366, 7-amino-N-[(6S)-2-[(8S)-8-amino-2-oxa-6-azaspiro[3.4]octan-6-yl]-5,6,7,8-tetrahydroquinolin-6-yl]-3-methylthieno[2,3-b]pyrazine-6-carboxamide] | 200 to 2000
18 | Cc1ccc2c(N)c(C(=O)N[C@H]3CCc4nc(N5C[C@H](N)[C@H](C(F)F)C5)ccc4C3)sc2n1 [Example 345, 3-amino-N-[(6S)-2-[(3R,4R)-3-amino-4-(difluoromethyl)pyrrolidin-1-yl]-5,6,7,8-tetrahydroquinolin-6-yl]-6-methylthieno[2,3-b]pyridine-2-carboxamide] | 50 to 200
19 | Cc1ccc2c(N)c(C(=O)N[C@@H]3CCc4cc(N5CC6CNCC(C5)O6)ccc4C3)sc2n1 [Example 451, N-((2R)-6-(9-oxa-3,7-diazabicyclo[3.3.1]nonan-3-yl)-1,2,3,4-tetrahydronaphthalen-2-yl)-3-amino-6-methylthieno[2,3-b]pyridine-2-carboxamide] | 50 to 200
20 | Cc1ccc2c(N)c(C(=O)N[C@H]3COc4cc(N5CC[C@]6(CCCNC6)C5)ccc4C3)sc2n1 [Example 3-13, N-((R)-7-((S)-2,7-diazaspiro[4.5]decan-2-yl)chroman-3-yl)-3-amino-6-methylthieno[2,3-b]pyridine-2-carboxamide] | 1 to 50
21 | O=C(N[C@H]1COc2cc(N3CCNCC3)ccc2C1)c1cnn2c(CO)cccc12 [Example 475, 7-(hydroxymethyl)-N-[(3R)-7-(piperazin-1-yl)-3,4-dihydro-2H-1-benzopyran-3-yl]pyrazolo[1,5-a]pyridine-3-carboxamide] | 200 to 2000
22 | CO[C@H]1CN(c2cc3c(c(F)c2F)C[C@@H](NC(=O)c2sc4nc(C)ccc4c2N)CO3)C[C@@H]1N [Example 416, 3-amino-N-[(3R)-7-[(3S,4S)-3-amino-4-methoxpyrrolidin-1-yl]-5,6-difluoro-3,4-dihydro-2H-1-benzopyran-3-yl]-6-methylthieno[2,3-b]pyridine-2-carboxamide] | 1 to 50
23 | Cc1ccc2c(N)c(C(=O)N[C@H]3CCc4nc(N5C[C@@H](N)[C@]6(CCCO6)C5)ccc4C3)sc2n1 [Example 391, 3-amino-N-[(6S)-2-[(5S,9R)-9-amino-1-oxa-7-azaspiro[4.4]nonan-7-yl]-5,6,7,8-tetrahydroquinolin-6-yl]-6-methylthieno[2,3-b]pyridine-2-carboxamide] | 50 to 200
24 | Cc1ccn2ncc(C(=O)N[C@H]3COc4cc(N5CCNCC5)ccc4C3)c2c1 [Example 465, (R)-5-methyl-N-(7-(piperazin-1-yl)chroman-3-yl)pyrazolo[1,5-a]pyridine-3-carboxamide] | > 2000
25 | O=C(N[C@H]1COc2cc(N3CCNCC3)ccc2C1)c1ccc(NCc2cccc(Cl)c2)nc1 [Example 467, (R)-6-((3-chlorobenzyl)amino)-N-(7-(piperazin-1-yl)chroman-3-yl)nicotinamide] | 200 to 2000
26 | Cc1ccc2c(N)c(C(=O)N[C@H]3COc4cc(N5C[C@@H](N)[C@H](OC(F)(F)F)C5)ccc4C3)sc2n1 (single isomer, unassigned) [Example 3-9] | 50 to 200
27 | Cc1ccc2c(N)c(C(=O)N[C@H]3COc4cc(N5CC[C@@]6(CCCNC6)C5)ccc4C3)sc2n1 [Example 3-14, N-((R)-7-((R)-2,7-diazaspiro[4.5]decan-2-yl)chroman-3-yl)-3-amino-6-methylthieno[2,3-b]pyridine-2-carboxamide] | 1 to 50
